Source: the supplement of paper PMC4954754
Where “and” joins values, the source holds several entries; their conditions need not be identical. Equal entries are not always repeated. ± gives the uncertainty stated by the source.

How the values were obtained:
Conditions in all cases: 18 h
[1] = tested on: HEK293T-Rex XBP1-RLuc; assay: EC50 for XBP1-RLuc reporter activation
Procedure: (§1)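 Dose-response of hit compounds in HEK293T-Rex cells stably expressing ERSE-FLuc or XBP1-RLuc reporters, 18 hr treatment, 1536-well; luminescence normalised to 500 nM thapsigargin (100%) and DMSO (0%), fitted to give EC50 (M) and maximal activation; '>' marks EC50 above the top tested dose (~17 µM).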

[2] = tested on: HEK293T-Rex XBP1-RLuc; assay: maximal XBP1-RLuc activation from dose-response fit, relative to thapsigargin (% of thapsigargin); higher = stronger activation
Procedure: as §1

[3] = tested on: HEK293T-Rex ERSE-FLuc; assay: EC50 for ERSE-FLuc reporter activation
Procedure: as §1

[4] = tested on: HEK293T-Rex ERSE-FLuc; assay: maximal ERSE-FLuc activation from dose-response fit, relative to thapsigargin (% of thapsigargin); higher = stronger activation
Procedure: as §1

Row | SMILES | EC50 for XBP1-RLuc reporter activation [1] | maximal XBP1-RLuc activation [2] | EC50 for ERSE-FLuc reporter activation [3] | maximal ERSE-FLuc activation [4]
1 | O=C(Nc1ccc2nc(NC(=O)C3CCCCC3)sc2c1)C1CCCCC1 | > 10.2 µM | 5.73 ± 2.7 | > 10.2 µM | 13.9 ± 2.4
2 | Cc1cc2nc(/C(C#N)=C/c3ccco3)[nH]c2cc1C | > 16.9 µM | 2.69 ± 0.74 | > 16.9 µM | 28 ± 8.7
3 | Cc1ccc(C(=O)Nc2sc3c(c2C#N)CCC3)cc1 | > 16.7 µM | 2.39 ± 0.61 | > 16.7 µM | 17.6 ± 5
4 | CCCNc1ccnc(N2CCc3ccccc3C2)n1 | > 17.7 µM | 1.68 ± 0.28 | > 17.7 µM | 12 ± 7.5
5 | Nc1nc(Nc2ccc(Cl)cc2)nc2ccccc12 | 8.74 µM | 56.4 ± 4.6 | 9.57 µM | 103 ± 24
6 | CCc1nc2sc(C(=O)c3ccccc3)c(N)c2cc1C | > 16.3 µM | 4.69 ± 3.2 | > 16.3 µM | 25.4 ± 6.3
7 | O=C(COC(=O)c1ccc(O)c(O)c1)Nc1nc(-c2ccccc2)cs1 | 16.8 µM | 53.4 ± 3.6 | > 18.2 µM | 36.1 ± 4.4
8 | COc1ccccc1/C=N/Nc1nc(-c2ccccc2)cc(=O)[nH]1 | > 16.9 µM | 5.2 ± 9.3 | > 16.9 µM | 28.3 ± 0.49
9 | Cc1cc(C)nc(/N=C(\N)Nc2ccc(OCc3ccccc3)cc2)n1 | 0.788 µM | 94.2 ± 4.2 | > 14.6 µM | 46.9 ± 15
10 | COC(=O)c1ccc2c(COC(C)=O)c(OC(C)=O)ccc2c1COC(C)=O | > 16.9 µM | 19.2 ± 4.8 | 14.7 µM | 70.9 ± 16
11 | CCc1cc2c(=O)c(-c3ccc4c(c3)OCCO4)coc2cc1OC | > 15 µM | 14.1 ± 1.5 | > 15 µM | 31.2 ± 5.7
12 | Cc1cc(C)nc(/N=C(\N)Nc2ccc(OCCC(C)C)cc2)n1 | > 5.17 µM | 89.1 ± 9.1 | > 15.5 µM | 45.3 ± 7.7
13 | COc1ccc2oc(=Nc3cc(F)ccc3F)c(C(N)=O)cc2c1 | > 14.7 µM | 1.95 ± 1.5 | > 14.7 µM | 19.1 ± 2.2
14 | C=CCNC(=O)c1sc2nc3cc(C)c(C)cc3cc2c1N | > 16.9 µM | 2.32 ± 1.2 | > 16.9 µM | 8.68 ± 2
15 | Cc1ccc(O)c(NC(=O)c2cc(C(C)C)on2)c1 | > 16.9 µM | 14.4 ± 1.7 | > 16.9 µM | 39.9 ± 7.2
16 | O=C1N/C(=C/c2ccc(O)cc2)C(=O)N1c1cccc(Cl)c1 | 3.04 µM | 100 ± 3 | 3.19 µM | 85.8 ± 20
17 | Cc1nc(-c2ccc(C(=O)Nc3ccc(O)cc3)cc2)cs1 | 12.9 µM | 65.5 ± 3.6 | > 16.9 µM | 27.7 ± 1.8
18 | CCCCNC(=O)c1cc(-c2cccs2)on1 | > 16.9 µM | 10.3 ± 2.2 | 6.65 µM | 107 ± 7.8
19 | COc1ccc(/C=C2\SC(=O)NC2=Nc2ccc(C)cc2)c(OC)c1 | > 13 µM | 3.27 ± 1.6 | > 13 µM | 18.2 ± 3.2
20 | Cc1ccn2cc(-c3ccc(O)c(O)c3)nc2c1 | 11.9 µM | 70.3 ± 12 | > 20.3 µM | 25.3 ± 5.2
21 | Cc1cc(C)nc(Nc2nc(-c3ccc(O)c(O)c3)cs2)n1 | 14.1 µM | 59.1 ± 1.4 | > 16.9 µM | 39.7 ± 7.3
22 | Cc1nc(-c2coc3c(O)c(O)ccc3c2=O)cs1 | > 16.9 µM | 20.6 ± 1 | > 16.9 µM | 35.2 ± 6.9

Row | SMILES | EC50 for XBP1-RLuc reporter activation [1] | maximal XBP1-RLuc activation [2] | EC50 for ERSE-FLuc reporter activation [3] | maximal ERSE-FLuc activation [4]
23 | Cc1ccc(O)c(NC(=O)c2cc(C3CC3)on2)c1 | > 16.9 µM | 23.7 ± 1.1 | 2.02 µM | 91.7 ± 12
24 | Cc1ccc(O)c(N/C=C/C(=O)c2ccc(F)cc2)c1 | 11.9 µM | 84.1 ± 19 | 3.31 µM | 303 ± 13
25 | N#C/C(=C\c1ccc(O)c(O)c1)C(=O)Nc1ccccc1 | > 33.8 µM | 21.5 ± 0.57 | 24.6 µM | 52.2 ± 13
26 | CN(C)c1ccc(/C=N/NC(=O)c2cccc(Br)c2)cc1 | > 16.9 µM | 2.34 ± 2 | > 16.9 µM | 19.2 ± 4.8
27 | O=C(NCCc1ccccc1)c1cc(-c2cccs2)on1 | > 16.9 µM | 8.27 ± 3.3 | 12.4 µM | 64.6 ± 9.1
28 | Cc1ccc(O)c(NC(=O)c2cc(-c3cccnc3)on2)c1 | > 16.9 µM | 27.9 ± 4.9 | 10.8 µM | 94.4 ± 10
29 | O=C(N/N=C/c1cccc(Cl)c1Cl)c1ccccc1O | > 16.9 µM | 2.04 ± 0.65 | > 16.9 µM | 6.19 ± 0.61
30 | CN(c1ccccc1)S(=O)(=O)c1cccc(C(=O)NCCc2ccc(O)c(O)c2)c1 | 8.35 µM | 125.1 ± 1 | 6.56 µM | 202 ± 34
31 | COc1cccc(/C=N/NC(=O)c2n[nH]c3c2CCCC3)c1 | > 16.9 µM | 3.95 ± 0.69 | > 16.9 µM | 29.6 ± 6.7
32 | Cc1ccc(O)c(NC(=O)CN(C)S(=O)(=O)c2ccc(Cl)cc2)c1 | > 16.9 µM | 31.4 ± 0.96 | > 16.9 µM | 43.4 ± 10
33 | COc1ccc(-c2cnnc(N/N=C/c3ccc(O)c(O)c3)n2)cc1 | 16.8 µM | 50.5 ± 3.9 | 14.7 µM | 54.5 ± 13
34 | O=c1/c(=C/c2ccc(O)c(O)c2)sc2nc3ccccc3n12 | > 16.9 µM | 43.9 ± 5.4 | 6.02 µM | 59.2 ± 3.9
35 | C/C=C(/C)C(=O)O[C@H]1C(C)=C2[C@H]([C@@H]1OC(=O)CCCCCCC)[C@@](C)(OC(C)=O)C[C@H](OC(=O)CCC)[C@@]1(O)[C@H]2OC(=O)[C@@]1(C)O | 0.11 µM and 0.146 µM | 127 and 103 | 0.07 µM and 0.0669 µM | 100 and 87.8
36 | COc1ccc(N(C(=O)c2ccccc2)S(=O)(=O)c2cc(OC)ccc2OC)cc1 | 5.82 µM | 185 ± 8.3 | 6.69 µM | 125 ± 14
37 | O=C1N/C(=C\c2ccc(O)cc2)C(O)=C1C=NCc1ccccc1 | 2.96 µM | 74.2 ± 4.9 | > 16.9 µM | 40.4 ± 7.5
38 | CCCCCCOc1ccc(/C(C)=N/NC2=NCCN2)cc1[N+](=O)[O-] | > 16.9 µM | 16.3 ± 1.6 | > 16.9 µM | 34.7 ± 1.6
39 | COc1c(O)cc2oc(-c3ccc(O)c(O)c3)cc(=O)c2c1O | 8.02 µM | 57.9 ± 2.8 | 3.69 µM | 129 ± 3.5
40 | COc1cccc(C(=O)Nc2nc3ccc(C)cc3s2)c1 | > 20.6 µM | 10.2 ± 2.3 | > 20.6 µM | 31.7 ± 6.6
41 | Cc1ccc(O)c(NC(=O)c2cc(-c3ccco3)on2)c1 | > 16.9 µM | 34.4 ± 4.2 | 4.85 µM | 167.3 ± 1.6
42 | Cc1ccc(O)c(N=CC2=C(O)c3ccccc3C2=O)c1 | > 16.9 µM | 35.5 ± 4.2 | 3.75 µM | 74.8 ± 16
43 | O=C1NC(=Nc2ccccc2)S/C1=C/c1ccc(O)c(O)c1 | > 15.4 µM | 38.5 ± 6.1 | 6.2 µM | 83.8 ± 12
44 | CCOc1cccc(C(=O)Nc2ccc(Br)cn2)c1 | > 15.1 µM | 4.18 ± 0.09 | > 15.1 µM | 23.3 ± 2.1
